{
  "source": "paper PMC7719162",
  "about": "“Positioning of an unprecedented spiro[5.5]undeca ring system into kinase inhibitor space” (Scientific Reports, 2020)",
  "key": {"[1]": {"system": "NO production in LPS-activated BV-2 cells", "test": "NO production assay (Griess) in LPS-activated BV-2 cells", "assay_type": "cell-based, murine", "conditions": "read-out: NO Inhibition IC50", "description": "(§1) 3-(4,5-dimethylthiazol-2-yl)-2,5-diphenyl-tetrazolium bromide (MTT) assay was performed to evaluate the cytotoxicity of the samples to the microglia. BV2 cells at the density of 4 × 10^4 cells /well were seeded in the 96 well plate and incubated for 24 h. Seeded cells were pre-treated with different concentration of the samples, and LPS (100 ng/ml) activation was performed after 30 min of compound treatment. Treated plate were incubated for 24 h in the incubator and nitric oxide assay and cell viability assay was performed. Treated cell’s conditioned medium was used to evaluate the NO assay, and the attached cells were used to evaluate the cell viability assay. 50 µL of conditioned medium (CM) from treated cells were transferred to a new 96 well plate for NO assay. This CM was mixed with the equal volume of the mixture of Gries reagent ((1% sulfanilamide and 0.1% N-1-napthylethylenediamine dihydrochloride). NaNO2 was used as standard and the colorimetric change were evidenced by measuring its OD at 540 nm in a microplate reader. The cells in the plate were incubated for 1 h with MTT solution making it the final concentration of […]. Blue stained cells were incubated with 200 ul of DMSO and the solution get changed to purple/formazan color and it was observed by measuring the absorbance at 570 nm in a microplate reader.NG-mono-methyl-L-arginine (L-NMMA), a well-known nitric oxide synthase (NOS) inhibitor, was used as a positive control."}, "BV-2 cells": {"system": "BV-2 cells", "test": "MTT cell viability assay", "assay_type": "cell-based, murine", "conditions": "5 μM compound, % of LPS, mean ± SD", "description": "as §1"}, "DAPK2 [2]": {"biological_target": "T1, DAPK2 (Homo sapiens, UniProt Q9UIK4)", "T1 construct": "purchased Reaction Biology Corp", "conditions": "cited from earlier work"}, "GSK3b [3]": {"biological_target": "T2, GSK3b (Homo sapiens, UniProt P49841)", "T2 construct": "purchased Reaction Biology Corp", "conditions": "cited from earlier work"}, "AMPK(A1/B1/G2) [4]": {"biological_target": "T3, AMPK(A1/B1/G2) (Homo sapiens, UniProt Q13131)", "T3 construct": "purchased Reaction Biology Corp", "test": "Kinase panel assay (radiolabelled)", "assay_type": "biochemical", "conditions": "30 μM compound, ATP 10 μM; duplicates Data 1/Data 2"}, "AMPK(A1/B1/G2) [5]": {"biological_target": "T4, AMPK(A1/B1/G2) (Homo sapiens, UniProt Q13131+Q9UGJ0+Q9Y478)", "T4 construct": "purchased Reaction Biology Corp", "test": "Kinase panel assay (radiolabelled)", "assay_type": "biochemical", "conditions": "30 μM compound, ATP 10 μM; duplicates Data 1/Data 2; read-out: % Enzyme Activity (relative to DMSO controls)"}, "CDK1/cyclin B": {"biological_target": "T5, CDK1/cyclin B (Homo sapiens, UniProt P06493)", "T5 construct": "purchased Reaction Biology Corp", "test": "Kinase panel assay (radiolabelled)", "assay_type": "biochemical", "conditions": "ATP 10 μM"}, "DAPK2 [6]": {"biological_target": "T1, DAPK2", "test": "Kinase panel assay (radiolabelled)", "assay_type": "biochemical", "conditions": "ATP 10 μM"}, "EEF2K": {"biological_target": "T6, EEF2K (Homo sapiens, UniProt O00418)", "T6 construct": "purchased Reaction Biology Corp", "test": "Kinase panel assay (radiolabelled)", "assay_type": "biochemical", "conditions": "30 μM compound, ATP 10 μM, duplicates Data 1/Data 2"}, "EIF2AK4": {"biological_target": "T7, EIF2AK4 (Homo sapiens, UniProt Q9P2K8)", "T7 construct": "purchased Reaction Biology Corp", "test": "Kinase panel assay (radiolabelled)", "assay_type": "biochemical", "conditions": "30 μM compound, ATP 10 μM, duplicates Data 1/Data 2"}, "GSK3b [7]": {"biological_target": "T2, GSK3b", "test": "Kinase panel assay (radiolabelled)", "assay_type": "biochemical"}, "ROCK1": {"biological_target": "T8, ROCK1 (Homo sapiens, UniProt Q13464)", "T8 construct": "purchased Reaction Biology Corp", "test": "Kinase panel assay (radiolabelled)", "assay_type": "biochemical", "conditions": "ATP 10 μM"}, "TRKC (L686M)": {"biological_target": "T9, TRKC (L686M) (Homo sapiens, UniProt Q16288, L686M)", "T9 construct": "purchased Reaction Biology Corp", "T9 sequence (Q16288 32-839 L686M)": "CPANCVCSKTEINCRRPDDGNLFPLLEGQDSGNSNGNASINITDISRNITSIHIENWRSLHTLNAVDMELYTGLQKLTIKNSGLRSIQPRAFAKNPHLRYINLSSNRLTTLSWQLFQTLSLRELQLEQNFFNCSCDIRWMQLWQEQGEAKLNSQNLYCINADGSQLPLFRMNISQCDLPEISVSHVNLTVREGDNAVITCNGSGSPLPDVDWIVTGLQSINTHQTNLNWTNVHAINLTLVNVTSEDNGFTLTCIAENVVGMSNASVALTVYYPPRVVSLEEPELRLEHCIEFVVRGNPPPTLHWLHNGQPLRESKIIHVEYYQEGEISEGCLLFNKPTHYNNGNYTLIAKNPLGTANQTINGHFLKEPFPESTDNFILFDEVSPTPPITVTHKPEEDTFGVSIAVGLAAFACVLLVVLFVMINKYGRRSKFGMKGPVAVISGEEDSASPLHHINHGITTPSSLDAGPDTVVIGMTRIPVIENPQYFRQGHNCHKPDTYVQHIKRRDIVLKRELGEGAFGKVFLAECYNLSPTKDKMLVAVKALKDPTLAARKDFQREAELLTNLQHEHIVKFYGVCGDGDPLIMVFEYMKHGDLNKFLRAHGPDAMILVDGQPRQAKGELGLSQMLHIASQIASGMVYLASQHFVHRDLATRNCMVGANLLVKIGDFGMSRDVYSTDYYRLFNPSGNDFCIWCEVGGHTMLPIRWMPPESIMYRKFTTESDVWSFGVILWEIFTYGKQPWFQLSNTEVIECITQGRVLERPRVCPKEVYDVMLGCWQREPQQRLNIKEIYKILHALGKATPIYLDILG", "test": "Kinase panel assay (radiolabelled)", "assay_type": "biochemical", "conditions": "30 μM compound, ATP 10 μM, duplicates Data 1/Data 2"}, "PI4Ka": {"biological_target": "T10, PI4Ka (Homo sapiens, UniProt P42356)", "T10 construct": "purchased Reaction Biology Corp", "T10 sequence (P42356 whole entry)": "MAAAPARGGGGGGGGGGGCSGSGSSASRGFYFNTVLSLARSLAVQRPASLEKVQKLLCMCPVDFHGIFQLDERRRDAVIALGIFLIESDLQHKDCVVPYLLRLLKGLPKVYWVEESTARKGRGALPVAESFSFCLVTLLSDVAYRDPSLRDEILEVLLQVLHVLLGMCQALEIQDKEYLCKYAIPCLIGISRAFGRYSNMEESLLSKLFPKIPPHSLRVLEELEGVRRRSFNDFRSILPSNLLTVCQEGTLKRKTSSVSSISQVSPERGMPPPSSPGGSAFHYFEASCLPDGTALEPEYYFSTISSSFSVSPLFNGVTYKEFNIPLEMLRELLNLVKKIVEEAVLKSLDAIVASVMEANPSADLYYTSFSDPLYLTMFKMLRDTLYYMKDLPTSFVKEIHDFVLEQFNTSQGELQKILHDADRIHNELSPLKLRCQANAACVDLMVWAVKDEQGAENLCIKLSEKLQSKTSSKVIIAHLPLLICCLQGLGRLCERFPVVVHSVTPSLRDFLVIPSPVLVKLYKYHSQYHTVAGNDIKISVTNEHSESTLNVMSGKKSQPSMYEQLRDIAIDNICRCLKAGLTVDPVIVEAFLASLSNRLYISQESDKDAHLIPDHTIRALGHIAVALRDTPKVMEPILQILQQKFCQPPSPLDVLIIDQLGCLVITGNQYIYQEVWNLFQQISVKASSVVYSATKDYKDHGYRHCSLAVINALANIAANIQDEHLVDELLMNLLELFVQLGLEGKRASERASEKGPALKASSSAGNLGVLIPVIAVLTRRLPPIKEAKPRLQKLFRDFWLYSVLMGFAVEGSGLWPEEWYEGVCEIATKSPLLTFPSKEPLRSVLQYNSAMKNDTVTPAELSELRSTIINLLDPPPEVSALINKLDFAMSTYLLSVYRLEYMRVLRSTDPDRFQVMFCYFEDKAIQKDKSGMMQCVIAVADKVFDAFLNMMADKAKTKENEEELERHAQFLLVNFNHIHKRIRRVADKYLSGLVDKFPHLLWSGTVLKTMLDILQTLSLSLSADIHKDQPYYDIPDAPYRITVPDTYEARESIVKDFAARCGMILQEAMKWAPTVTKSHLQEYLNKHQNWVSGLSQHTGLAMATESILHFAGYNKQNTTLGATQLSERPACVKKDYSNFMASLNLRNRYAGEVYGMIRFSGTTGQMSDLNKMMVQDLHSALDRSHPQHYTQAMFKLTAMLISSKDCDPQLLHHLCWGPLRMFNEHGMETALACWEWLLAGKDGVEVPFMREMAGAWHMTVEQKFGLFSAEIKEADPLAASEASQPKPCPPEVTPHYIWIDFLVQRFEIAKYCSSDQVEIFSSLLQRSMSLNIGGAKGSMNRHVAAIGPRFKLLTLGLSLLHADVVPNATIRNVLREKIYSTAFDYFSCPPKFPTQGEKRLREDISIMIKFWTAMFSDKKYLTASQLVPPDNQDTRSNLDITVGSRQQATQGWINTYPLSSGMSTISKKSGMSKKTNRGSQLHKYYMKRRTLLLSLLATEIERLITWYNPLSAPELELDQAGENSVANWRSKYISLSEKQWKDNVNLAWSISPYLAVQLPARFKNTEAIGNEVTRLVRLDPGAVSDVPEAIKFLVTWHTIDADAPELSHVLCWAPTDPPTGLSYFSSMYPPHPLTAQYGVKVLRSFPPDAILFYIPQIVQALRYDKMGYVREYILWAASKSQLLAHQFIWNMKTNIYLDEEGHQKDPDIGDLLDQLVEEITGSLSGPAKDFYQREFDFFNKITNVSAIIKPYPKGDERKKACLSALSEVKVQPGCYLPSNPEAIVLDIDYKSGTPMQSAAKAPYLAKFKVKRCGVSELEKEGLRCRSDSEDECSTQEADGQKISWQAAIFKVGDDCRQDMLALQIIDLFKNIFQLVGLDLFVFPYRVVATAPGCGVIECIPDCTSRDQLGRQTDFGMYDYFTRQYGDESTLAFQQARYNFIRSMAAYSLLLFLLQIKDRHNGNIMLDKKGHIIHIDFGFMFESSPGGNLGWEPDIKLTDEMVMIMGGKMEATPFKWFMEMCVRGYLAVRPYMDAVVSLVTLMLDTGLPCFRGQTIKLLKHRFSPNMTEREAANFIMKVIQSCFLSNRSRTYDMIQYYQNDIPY", "test": "Kinase panel assay (lipid kinase)", "assay_type": "biochemical", "conditions": "30 μM compound, ATP 10 μM, duplicates Data 1/Data 2"}, "PI3Ka (p110a/p85a)": {"biological_target": "T11, PI3Ka (p110a/p85a) (Homo sapiens, UniProt P42336)", "T11 construct": "purchased Reaction Biology Corp", "T11 sequence (P42336 whole entry)": "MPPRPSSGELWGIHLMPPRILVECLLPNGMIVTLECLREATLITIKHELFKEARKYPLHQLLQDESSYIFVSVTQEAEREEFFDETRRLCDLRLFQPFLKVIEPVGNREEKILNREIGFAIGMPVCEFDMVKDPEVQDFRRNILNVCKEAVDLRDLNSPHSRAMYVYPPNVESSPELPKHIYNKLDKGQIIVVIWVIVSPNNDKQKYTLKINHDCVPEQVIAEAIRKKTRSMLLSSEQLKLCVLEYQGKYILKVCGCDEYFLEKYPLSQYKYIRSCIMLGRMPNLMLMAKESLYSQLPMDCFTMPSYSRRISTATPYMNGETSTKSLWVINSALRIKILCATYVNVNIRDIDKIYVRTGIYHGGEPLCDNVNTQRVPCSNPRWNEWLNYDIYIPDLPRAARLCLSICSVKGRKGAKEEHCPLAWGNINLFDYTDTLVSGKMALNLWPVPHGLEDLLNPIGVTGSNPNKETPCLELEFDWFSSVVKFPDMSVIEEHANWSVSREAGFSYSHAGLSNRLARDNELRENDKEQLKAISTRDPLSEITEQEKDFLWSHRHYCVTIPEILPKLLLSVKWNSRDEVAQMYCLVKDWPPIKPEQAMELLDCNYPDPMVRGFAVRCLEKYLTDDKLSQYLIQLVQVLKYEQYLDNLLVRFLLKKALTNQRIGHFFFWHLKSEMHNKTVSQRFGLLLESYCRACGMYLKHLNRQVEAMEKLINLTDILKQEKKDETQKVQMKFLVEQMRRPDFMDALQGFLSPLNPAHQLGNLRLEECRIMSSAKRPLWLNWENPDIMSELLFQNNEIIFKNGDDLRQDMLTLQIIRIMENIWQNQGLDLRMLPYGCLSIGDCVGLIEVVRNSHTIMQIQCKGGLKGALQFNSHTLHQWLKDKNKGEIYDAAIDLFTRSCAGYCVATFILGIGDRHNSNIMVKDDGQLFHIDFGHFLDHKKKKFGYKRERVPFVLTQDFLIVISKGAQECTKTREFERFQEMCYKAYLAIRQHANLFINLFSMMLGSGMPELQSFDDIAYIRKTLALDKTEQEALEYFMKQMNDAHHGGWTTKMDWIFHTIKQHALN", "T11 sequence (P27986 whole entry partner)": "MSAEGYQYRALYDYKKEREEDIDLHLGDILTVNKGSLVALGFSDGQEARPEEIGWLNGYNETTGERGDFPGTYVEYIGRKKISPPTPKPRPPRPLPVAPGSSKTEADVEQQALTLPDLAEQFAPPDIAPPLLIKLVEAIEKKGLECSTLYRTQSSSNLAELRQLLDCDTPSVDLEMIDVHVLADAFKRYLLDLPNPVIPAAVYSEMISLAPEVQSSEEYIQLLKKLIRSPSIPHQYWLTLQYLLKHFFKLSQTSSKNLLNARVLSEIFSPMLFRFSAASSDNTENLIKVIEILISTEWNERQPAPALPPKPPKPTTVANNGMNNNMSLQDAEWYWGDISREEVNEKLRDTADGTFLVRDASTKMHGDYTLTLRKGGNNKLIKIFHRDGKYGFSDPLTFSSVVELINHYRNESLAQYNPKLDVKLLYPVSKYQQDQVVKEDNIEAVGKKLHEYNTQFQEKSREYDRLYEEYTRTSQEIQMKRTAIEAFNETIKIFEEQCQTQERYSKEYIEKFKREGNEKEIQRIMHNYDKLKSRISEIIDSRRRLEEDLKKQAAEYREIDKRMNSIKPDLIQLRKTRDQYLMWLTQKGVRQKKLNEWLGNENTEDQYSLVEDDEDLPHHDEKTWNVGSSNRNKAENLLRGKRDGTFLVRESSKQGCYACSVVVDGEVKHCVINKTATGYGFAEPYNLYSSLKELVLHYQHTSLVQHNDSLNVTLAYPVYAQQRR", "test": "Kinase panel assay (lipid kinase)", "assay_type": "biochemical", "conditions": "30 μM compound, ATP 10 μM, duplicates Data 1/Data 2"}, "PI3K (p110a/p65a)": {"biological_target": "T12, PI3K (p110a/p65a) (Homo sapiens, UniProt P42336)", "T12 construct": "purchased Reaction Biology Corp", "T12 sequence (P42336 whole entry)": "as the sequence (P42336 whole entry) above", "test": "Kinase panel assay (lipid kinase)", "assay_type": "biochemical", "conditions": "30 μM compound, ATP 10 μM, duplicates Data 1/Data 2"}, "MTT cell viability assay": {"test": "MTT cell viability assay", "assay_type": "cell-based, murine", "conditions": "mouse, BV-2 microglia cells (LPS-activated), mean ± SD", "description": "as §1"}, "iNOS": {"system": "iNOS", "test": "Western blot of iNOS in LPS-induced BV-2 cells", "assay_type": "cell-based, murine", "description": "Western blot analysis was performed to see the protein expression of the iNOS and COX-2 in the BV2 cells. BV2 cells were seeded in a 6 well plate at the density of 6 × 10^5 cells/well overnight and cells were treated as mentioned earlier in the cell treatment section and this time treatment was performed for 6 h only. After 6 h, cells were harvested and lysed with lysis buffer containing (RIPA, protease inhibitor & phosphatase inhibitor), protein estimation was performed using biorad assay and the 30 µg of total protein was separated by 8% SDS-PAGE gel electrophoresis, transferred to nitrocellulose membranes, and incubated with primary antibodies against tubulin, iNOS, COX-2, and α-tubulin. […] membranes were incubated with horseradish peroxidase-conjugated secondary antibodies, and protein bands were visualized using ECL Western Blotting Detection Reagents (Amersham Pharmacia Biotech). Quantitative analysis of the protein bands was quantified using Image Master 2D Elite software (version 3.1, Amersham Pharmacia Biotech)."}, "[8]": {"conditions": "30 μM compound, duplicates Data 1/Data 2"}, "[9]": {"conditions": "30 μM compound, duplicates Data 1/Data 2, read-out: % Enzyme Activity (relative to DMSO controls)"}, "[10]": {"conditions": "30 μM, average ± SD, read-out: % Residual Activity at 30 μM"}, "[11]": {"conditions": "read-out: % Enzyme Activity (relative to DMSO controls)"}},
  "note": "Where two headings read alike, the source gives them in different places.",
  "data": [
    {"smiles": "O=C1C=CC2(C=C1)OCC(Cc1cc(C(F)(F)F)cc(C(F)(F)F)c1)C(=O)N2c1ccccc1", "note": "(racemic) [1c]", "values": [
      {"measurement": "IC50", "setting": "[1]", "result": "70 ± 10", "unit": "nM"},
      {"measurement": "Cell Viability (%)", "setting": "BV-2 cells", "result": "92 ± 13", "unit": "%"},
      {"measurement": "% Residual Activity at 30 μM", "setting": "DAPK2 [2]", "result": "120.1 ± 0.6", "unit": "%"},
      {"measurement": "inhibitory activity on GSK-3β", "setting": "GSK3b [3]; 30 μM", "result": "did not show any inhibitory activity"},
      {"measurement": "% Residual Activity at 30 μM", "setting": "GSK3b [3]", "result": "107.5 ± 1.9", "unit": "%"}
    ]},
    {"smiles": "O=C1C=CC2(C=C1)OCC(Cc1cn(-c3cccc(Cl)c3)nn1)C(=O)N2c1ccccc1", "note": "(stereo not shown) [2d, 3-((1-(3-Chlorophenyl)-1H-1,2,3-triazol-4-yl)methyl)-5-phenyl-1-oxa-5-azaspiro[5.5]undeca-7,10-diene-4,9-dione]", "values": [
      {"measurement": "% Enzyme Activity (relative to DMSO controls)", "setting": "AMPK(A1/B1/G2) [4]", "result": 66.48, "unit": "%"},
      {"measurement": "remaining activity at 30 µM", "setting": "AMPK(A1/B1/G2) [5]", "result": 68, "unit": "%"},
      {"measurement": "% Enzyme Activity (relative to DMSO controls)", "setting": "CDK1/cyclin B; [8]", "result": 58.64, "unit": "%"},
      {"measurement": "remaining activity at 30 µM", "setting": "CDK1/cyclin B; [9]", "result": 59.3, "unit": "%"},
      {"measurement": "remaining activity at 30 µM", "setting": "CDK1/cyclin B; [10]", "result": "59 ± 0.5", "unit": "%"},
      {"measurement": "% Enzyme Activity (relative to DMSO controls)", "setting": "DAPK2 [6]; [8]", "result": 109.81, "unit": "%"},
      {"measurement": "remaining activity at 30 µM", "setting": "DAPK2 [6]; [9]", "result": 111, "unit": "%"},
      {"measurement": "remaining activity at 30 µM", "setting": "DAPK2 [6]; [10]", "result": "110.2 ± 0.6", "unit": "%"},
      {"measurement": "% Enzyme Activity (relative to DMSO controls)", "setting": "EEF2K", "result": 101.96, "unit": "%"},
      {"measurement": "remaining activity at 30 µM", "setting": "EEF2K; [11]", "result": 103, "unit": "%"},
      {"measurement": "% Enzyme Activity (relative to DMSO controls)", "setting": "EIF2AK4", "result": 102.49, "unit": "%"},
      {"measurement": "remaining activity at 30 µM", "setting": "EIF2AK4; [11]", "result": 104, "unit": "%"},
      {"measurement": "% Enzyme Activity (relative to DMSO controls)", "setting": "GSK3b [7]; 30 μM compound, ATP 10 μM, duplicates Data 1/Data 2", "result": 1.64, "unit": "%"},
      {"measurement": "remaining activity at 30 µM", "setting": "GSK3b [7]; 30 μM compound, ATP 10 μM, duplicates Data 1/Data 2, read-out: % Enzyme Activity (relative to DMSO controls)", "result": 2.81, "unit": "%"},
      {"measurement": "remaining activity at 30 µM", "setting": "GSK3b [7]; 30 μM, ATP 10 μM, average ± SD, read-out: % Residual Activity at 30 μM", "result": "2.2 ± 0.8", "unit": "%"},
      {"measurement": "inhibition at 30 µM", "setting": "GSK3b [7]; 30 μM, read-out: inhibition of GSK-3β in 70-kinase panel", "result": "> 90", "unit": "%"},
      {"measurement": "% Enzyme Activity (relative to DMSO controls)", "setting": "ROCK1; [8]", "result": 101.05, "unit": "%"},
      {"measurement": "remaining activity at 30 µM", "setting": "ROCK1; [9]", "result": 105, "unit": "%"},
      {"measurement": "remaining activity at 30 µM", "setting": "ROCK1; [10]", "result": "103 ± 3.1", "unit": "%"},
      {"measurement": "% Enzyme Activity (relative to DMSO controls)", "setting": "TRKC (L686M)", "result": 106.77, "unit": "%"},
      {"measurement": "remaining activity at 30 µM", "setting": "TRKC (L686M); [11]", "result": 107, "unit": "%"},
      {"measurement": "% Enzyme Activity (relative to DMSO controls)", "setting": "PI4Ka", "result": 101.50, "unit": "%"},
      {"measurement": "remaining activity at 30 µM", "setting": "PI4Ka; [11]", "result": 101, "unit": "%"},
      {"measurement": "% Enzyme Activity (relative to DMSO controls)", "setting": "PI3Ka (p110a/p85a)", "result": 250.92, "unit": "%"},
      {"measurement": "remaining activity at 30 µM", "setting": "PI3Ka (p110a/p85a); [11]", "result": 252, "unit": "%"},
      {"measurement": "% Enzyme Activity (relative to DMSO controls)", "setting": "PI3K (p110a/p65a)", "result": 82.25, "unit": "%"},
      {"measurement": "remaining activity at 30 µM", "setting": "PI3K (p110a/p65a); [11]", "result": 83.8, "unit": "%"},
      {"measurement": "IC50", "setting": "[1]; Mus musculus", "result": 660, "unit": "nM"},
      {"measurement": "viability at 24 h, 1 µM", "setting": "MTT cell viability assay; 1 μM compound", "result": "112 ± 19.8", "unit": "%"},
      {"measurement": "viability at 24 h, 5 µM", "setting": "MTT cell viability assay; 5 μM compound, % of LPS", "result": "90 ± 6", "unit": "%"},
      {"measurement": "iNOS expression level", "setting": "iNOS; 0.01 to 1 uM, LPS-induced BV-2 cells", "result": "downregulated iNOS and COX-2 more efficiently than compound 2a"},
      {"measurement": "potency relative to L-NMMA", "setting": "iNOS; regulation of iNOS and COX-2, LPS-induced BV-2 cells", "result": 20, "unit": "fold"}
    ]}
  ]
}
